Measurements reported in the CheMixHub ionic liquid set.
± gives the uncertainty stated by the source.

Assay: xn = mol fraction of the nth substance listed

CCCC[P+](CCCC)(CCCC)CCCC.[Br-] + OCCO + O
viscosity [mPa·s], 101.3 kPa
Conditions | x1 = 0.0383, x2 = 0.0767 | x1 = 0.06893, x2 = 0.1381 | x1 = 0.09557, x2 = 0.1914 | x1 = 0.1302, x2 = 0.2608 | x1 = 0.1675, x2 = 0.3355 | x1 = 0.1968, x2 = 0.3942 | x1 = 0.2368, x2 = 0.4742 | x1 = 0.2634, x2 = 0.5276 | x1 = 0.3054, x2 = 0.6116 | x1 = 0.333, x2 = 0.667
293.15 K | 4.67 ± 0.48 | 11.5 ± 1.2 | 20.5 ± 2.1 | 35.1 ± 3.5 | 50.8 ± 5.1 | 62 ± 6.2 | 74.1 ± 7.4 | 82.3 ± 8.3 | 105 ± 11 | 122 ± 12
298.15 K | 3.8 ± 0.39 | 9.08 ± 0.92 | 16.1 ± 1.6 | 27.2 ± 2.7 | 38.8 ± 3.9 | 48.1 ± 4.8 | 57 ± 5.7 | 64.1 ± 6.4 | 78.1 ± 7.8 | 93.4 ± 9.4
303.15 K | 3.15 ± 0.32 | 7.34 ± 0.74 | 13 ± 1.3 | 21.7 ± 2.2 | 31 ± 3.1 | 38.2 ± 3.8 | 44.5 ± 4.5 | 49.4 ± 5 | 63.7 ± 6.4 | 72.4 ± 7.3
308.15 K | 2.74 ± 0.28 | 6.11 ± 0.62 | 10.6 ± 1.1 | 17.7 ± 1.8 | 24.9 ± 2.5 | 30.1 ± 3 | 35.3 ± 3.5 | 39.5 ± 4 | 50.2 ± 5 | 56.9 ± 5.7
313.15 K | 2.35 ± 0.24 | 5.21 ± 0.53 | 8.88 ± 0.9 | 14.4 ± 1.4 | 20.5 ± 2.1 | 24.5 ± 2.5 | 28.3 ± 2.8 | 32.2 ± 3.2 | 39.9 ± 4 | 45.3 ± 4.5
318.15 K | 2.08 ± 0.21 | 4.43 ± 0.45 | 7.33 ± 0.74 | 11.9 ± 1.2 | 16.8 ± 1.7 | 20.1 ± 2 | 23.1 ± 2.3 | 26.4 ± 2.7 | 32.4 ± 3.2 | 36.6 ± 3.7
323.15 K | 1.84 ± 0.19 | 3.8 ± 0.38 | 6.34 ± 0.64 | 10.1 ± 1 | 13.9 ± 1.4 | 16.8 ± 1.7 | 19 ± 1.9 | 21.9 ± 2.2 | 26.6 ± 2.7 | 29.9 ± 3

CC(=O)[O-].Cn1cc[n+](C)c1 + O
293.15 K, 101.3 kPa
Conditions | electrical conductivity [S/m]
x2 = 0 | 0.275 ± 0.001
x2 = 0.0799 | 0.561 ± 0.001
x2 = 0.1095 | 0.863 ± 0.001
x2 = 0.2767 | 1.457 ± 0.001
x2 = 0.4986 | 2.733 ± 0.001
x2 = 0.5673 | 3.384 ± 0.001
x2 = 0.7029 | 5.091 ± 0.001
x2 = 0.7484 | 5.772 ± 0.001
x2 = 0.8651 | 7.166 ± 0.001
x2 = 0.8897 | 6.824 ± 0.001
x2 = 0.9043 | 5.765 ± 0.001
x2 = 0.9388 | 2.782 ± 0.001
x2 = 0.9483 | 2 ± 0.001
x2 = 0.9579 | 1.213 ± 0.001
x2 = 0.9681 | 0.729 ± 0.001

CCCCCCCCCCCCCC[P+](CCCCCC)(CCCCCC)CCCCCC.N#C[N-]C#N + O
viscosity [mPa·s], 100 kPa
Conditions | 298.15 K | 303.15 K
x1 = 0.5511 | 183 ± 13 | –
x1 = 0.8444 | 440 ± 34 | 328 ± 24

CC[n+]1ccn(C)c1.O=S(=O)([O-])C(F)(F)F + O=[N+]([O-])[O-].[Li+]
101 kPa, x1 = 1
Conditions | electrical conductivity [S/m]
288.15 K | 0.605 ± 0.061
298.15 K | 0.859 ± 0.086
333.15 K | 2.24 ± 0.22

CC[NH+](C)CC.CS(=O)(=O)[O-] + O
Conditions | viscosity [mPa·s]
293.1 K, 101 kPa, x2 = 0.707 | 21 ± 0.26
298.15 K, 100 kPa, x1 = 0.0967 | 4.51 ± 0.45
298.15 K, 100 kPa, x1 = 0.4263 | 31.1 ± 3.1
298.15 K, 100 kPa, x1 = 0.6771 | 69.7 ± 7.1
303.15 K, 100 kPa, x1 = 0.0967 | 3.94 ± 0.4
303.15 K, 100 kPa, x1 = 0.3246 | 16.6 ± 1.7
303.15 K, 100 kPa, x1 = 0.6771 | 55.2 ± 5.6
308.15 K, 100 kPa, x1 = 0.0155 | 1.04 ± 0.11
308.15 K, 100 kPa, x1 = 0.5018 | 27.9 ± 2.8
308.15 K, 100 kPa, x1 = 0.5783 | 34.2 ± 3.5
308.15 K, 100 kPa, x1 = 0.7782 | 55.3 ± 5.6
313.1 K, 101 kPa, x2 = 0.372 | 27.27 ± 0.4
313.15 K, 100 kPa, x1 = 0.0571 | 1.79 ± 0.18
313.15 K, 100 kPa, x1 = 0.3246 | 11.8 ± 1.2
313.15 K, 100 kPa, x1 = 0.4263 | 18 ± 1.8
318.15 K, 100 kPa, x1 = 0.1582 | 4.46 ± 0.45
328.15 K, 100 kPa, x1 = 0.1582 | 3.46 ± 0.35
328.15 K, 100 kPa, x1 = 0.206 | 4.6 ± 0.46
328.15 K, 100 kPa, x1 = 0.5018 | 14.1 ± 1.4
328.15 K, 100 kPa, x1 = 0.7782 | 25.4 ± 2.6
333.1 K, 101 kPa, x2 = 0.372 | 13.95 ± 0.18
333.1 K, 101 kPa, x2 = 0.507 | 9.98 ± 0.13
333.15 K, 100 kPa, x1 = 0.0967 | 1.97 ± 0.2
333.15 K, 100 kPa, x1 = 0.3246 | 6.65 ± 0.67
333.15 K, 100 kPa, x1 = 0.5018 | 12.2 ± 1.2
338.15 K, 100 kPa, x1 = 0.0571 | 1.11 ± 0.11
338.15 K, 100 kPa, x1 = 0.3246 | 5.84 ± 0.59
338.15 K, 100 kPa, x1 = 0.4263 | 8.21 ± 0.83
338.15 K, 100 kPa, x1 = 0.5018 | 10.3 ± 1
338.15 K, 100 kPa, x1 = 0.5783 | 12.2 ± 1.2
338.15 K, 100 kPa, x1 = 0.6771 | 15.3 ± 1.6
353.1 K, 101 kPa, x2 = 0.449 | 6.83 ± 0.09
353.1 K, 101 kPa, x2 = 0.624 | 4.58 ± 0.06

CC[n+]1ccn(C)c1.O=S(=O)([O-])C(F)(F)F + CN(C)C=O
100 kPa
Conditions | viscosity [mPa·s]
298.15 K, x2 = 0.1933 | 28.54 ± 0.68
303.15 K, x2 = 0.406 | 12.55 ± 0.62
308.15 K, x2 = 0.406 | 10.91 ± 0.61
313.15 K, x2 = 0.5976 | 4.5 ± 0.6
313.15 K, x2 = 0.7981 | 2.03 ± 0.6
318.15 K, x2 = 0.0917 | 19.61 ± 0.64
318.15 K, x2 = 0.1933 | 15.46 ± 0.63
318.15 K, x2 = 0.2995 | 11.68 ± 0.61
318.15 K, x2 = 0.6947 | 2.6 ± 0.6
323.15 K, x2 = 0.6947 | 2.42 ± 0.6

CC[n+]1ccn(C)c1.O=S(=O)([O-])C(F)(F)F + OCC(O)CO
100 kPa
Conditions | electrical conductivity [S/m] | viscosity [mPa·s]
293.15 K, x1 = 0.002 | – | 1372 ± 64
293.15 K, x2 = 0.199 | – | 48.9 ± 1
293.15 K, x2 = 0.605 | – | 97.9 ± 2.6
293.15 K, x2 = 0.698 | – | 146.4 ± 4.3
293.15 K, x2 = 0.962 | – | 968 ± 42
298.15 K, x1 = 0.002 | 0.000274 ± 1.1e-05 | –
298.15 K, x1 = 0.004 | 0.00056 ± 2e-05 | –
298.15 K, x1 = 0.011 | 0.00141 ± 6e-05 | –
298.15 K, x1 = 0.018 | 0.00247 ± 0.0001 | –
298.15 K, x2 = 0.401 | 0.68 ± 0.03 | 45.4 ± 1
303.15 K, x2 = 0.962 | – | 425 ± 15
313.15 K, x1 = 0.002 | 0.00084 ± 3e-05 | –
313.15 K, x1 = 0.004 | 0.00176 ± 7e-05 | –
313.15 K, x1 = 0.011 | 0.00439 ± 0.00018 | –
313.15 K, x1 = 0.018 | 0.0079 ± 0.0003 | 243 ± 7.4
313.15 K, x2 = 0.299 | 1.27 ± 0.05 | 23.4 ± 0.5

CCCCCCCC[n+]1cccc(C)c1.F[B-](F)(F)F + O
298.15 K, 101 kPa
Conditions | electrical conductivity [S/m]
x1 = 4.685e-05 | 0.024 ± 0.02
x1 = 0.0001279 | 0.063 ± 0.02
x1 = 0.000272 | 0.127 ± 0.02
x1 = 0.0003045 | 0.142 ± 0.02
x1 = 0.0004197 | 0.19 ± 0.02
x1 = 0.0005619 | 0.248 ± 0.02
x1 = 0.0007023 | 0.308 ± 0.02
x1 = 0.0007922 | 0.33 ± 0.02
x1 = 0.0008948 | 0.377 ± 0.02
x1 = 0.0009955 | 0.402 ± 0.02
x1 = 0.00103 | 0.408 ± 0.02
x1 = 0.001107 | 0.419 ± 0.02
x1 = 0.001265 | 0.42 ± 0.02
x1 = 0.00128 | 0.42 ± 0.02
x1 = 0.001371 | 0.421 ± 0.02
x1 = 0.001459 | 0.421 ± 0.02
x1 = 0.001608 | 0.422 ± 0.02
x1 = 0.00177 | 0.422 ± 0.02
x1 = 0.001919 | 0.422 ± 0.02
x1 = 0.002066 | 0.423 ± 0.02
x1 = 0.002642 | 0.425 ± 0.02
